The target of one experiment is JAK1 (Homo sapiens (Human), UniProt P23458). Nature of the experiment: LanthaScreen JAK biochemical assay, JAK1. The procedure:
(§1) A panel of four LanthaScreen JAK biochemical assays (JAK1, 2, 3 and Tyk2) were carried in a common kinase reaction buffer (50 mM HEPES, pH 7.5, 0.01% Brij-35, 10 mM MgCl2, and 1 mM EGTA). Recombinant GST-tagged JAK enzymes and a GFP-tagged STAT1 peptide substrate were obtained from Life Technologies.
(Time-resolved FRET reads energy transfer from a long-lived donor to a nearby acceptor.)

The target of a further experiment is JAK2 (Homo sapiens (Human), UniProt O60674). Kind of experiment: LanthaScreen JAK biochemical assay, JAK2. The following applies: for Ki: read-out: JAK 2 (pKi) (converted). The procedure:
as §1

In a further experiment the target is JAK3 (Homo sapiens (Human), UniProt P52333). Nature of the experiment: LanthaScreen JAK biochemical assay, JAK3. The following applies: for Ki: read-out: JAK 3 (pKi) (converted). The procedure: as §1
For a further experiment, the target named is Tyk2 (Homo sapiens (Human), UniProt P29597). Kind of experiment: LanthaScreen JAK biochemical assay, Tyk2. Particulars: for Ki: read-out: Tyk 2 (pKi) (converted). As to the method: as §1
Experiment [1] has as its system IL-13 induced STAT6 phosphorylation in HT-29 human colorectal adenocarcinoma cells. Kind of experiment: Cellular JAK potency assay: inhibition of IL-13 induced STAT6 phosphorylation. It counts as cell-based. Particulars: IL-13 induced STAT6 phosphorylation, HT-29 cells; for IC50: Homo sapiens, read-out: HT-29 (pIC50) (converted). As to the method:
The potency of test compounds for inhibition of the JAK-dependent cytokine interleuken-13 (IL-13) was assessed by measuring IL-13 (IL-13, R&D Systems) induced STAT6 phosphorylation in HT-29 human colorectal adenocarcinoma cells (ATCC).
The anti-STAT6 antibody (Cell Signaling Technologies) was conjugated to AlphaScreen acceptor beads (Perkin Elmer), while the anti-pSTAT6 (pTyr641) antibody (Cell Signaling Technologies) was biotinylated using EZ-Link Sulfo-NHS-Biotin (Thermo Scientific).
HT-29 cells were grown at 37° C. in a 5% CO2 humidified incubator in McCoy's 5a Modified medium (ATCC) supplemented with 10% FBS (Hyclone), 100 U/mL penicillin, 100 μg/mL streptomycin (Life Technologies), and 2 mM GlutaMAX (Life Technologies). On day 1 of the assay, cells were seeded at a 7,500 cells/well density in white poly-D-lysine-coated 384-well plates (Corning) with 25 μL medium, and were allowed to adhere overnight in the incubator. On day 2 of the assay, the medium was removed and replaced with 12 μL of assay buffer (Hank's Balanced Salt Solution/HBSS, 25 mM HEPES, and 1 mg/ml bovine serum albumin/BSA) containing dose-responses of test compounds. Compounds were serially diluted in DMSO and then diluted another 1000-fold in media to bring the final DMSO concentration to 0.1%. Cells were incubated with test compounds at 37° C. for 1 h, and followed by the addition of 12 μL of pre-warmed IL-13 (12 ng/ml in assay buffer) for stimulation. After incubating at 37° C. for 30 min, the assay buffer (containing compound and IL-13) was removed, and 10 μL of cell lysis buffer (25 mM HEPES, 0.1% SDS, 1% NP-40, 5 mM MgCl2, 1.3 mM EDTA, 1 mM EGTA, and supplement with Complete Ultra mini protease inhibitors and PhosSTOP from Roche Diagnostics). The plates were shaken at ambient temperature for 30 min before the addition of detection reagents. A mixture of biotin-anti-pSTAT6 and anti-STAT6 conjugated acceptor beads was added first and incubated at ambient temperature for 2 h, followed by the addition of streptavidin conjugated donor beads (Perkin Elmer). After a minimum of 2 h incubation, the assay plates were read on the EnVision plate reader.
Results were expressed as the negative logarithm of the IC50 value, pIC50.

Like-named read-outs stand apart in the source and are kept apart here.

Sequence of JAK2 (O60674 whole entry): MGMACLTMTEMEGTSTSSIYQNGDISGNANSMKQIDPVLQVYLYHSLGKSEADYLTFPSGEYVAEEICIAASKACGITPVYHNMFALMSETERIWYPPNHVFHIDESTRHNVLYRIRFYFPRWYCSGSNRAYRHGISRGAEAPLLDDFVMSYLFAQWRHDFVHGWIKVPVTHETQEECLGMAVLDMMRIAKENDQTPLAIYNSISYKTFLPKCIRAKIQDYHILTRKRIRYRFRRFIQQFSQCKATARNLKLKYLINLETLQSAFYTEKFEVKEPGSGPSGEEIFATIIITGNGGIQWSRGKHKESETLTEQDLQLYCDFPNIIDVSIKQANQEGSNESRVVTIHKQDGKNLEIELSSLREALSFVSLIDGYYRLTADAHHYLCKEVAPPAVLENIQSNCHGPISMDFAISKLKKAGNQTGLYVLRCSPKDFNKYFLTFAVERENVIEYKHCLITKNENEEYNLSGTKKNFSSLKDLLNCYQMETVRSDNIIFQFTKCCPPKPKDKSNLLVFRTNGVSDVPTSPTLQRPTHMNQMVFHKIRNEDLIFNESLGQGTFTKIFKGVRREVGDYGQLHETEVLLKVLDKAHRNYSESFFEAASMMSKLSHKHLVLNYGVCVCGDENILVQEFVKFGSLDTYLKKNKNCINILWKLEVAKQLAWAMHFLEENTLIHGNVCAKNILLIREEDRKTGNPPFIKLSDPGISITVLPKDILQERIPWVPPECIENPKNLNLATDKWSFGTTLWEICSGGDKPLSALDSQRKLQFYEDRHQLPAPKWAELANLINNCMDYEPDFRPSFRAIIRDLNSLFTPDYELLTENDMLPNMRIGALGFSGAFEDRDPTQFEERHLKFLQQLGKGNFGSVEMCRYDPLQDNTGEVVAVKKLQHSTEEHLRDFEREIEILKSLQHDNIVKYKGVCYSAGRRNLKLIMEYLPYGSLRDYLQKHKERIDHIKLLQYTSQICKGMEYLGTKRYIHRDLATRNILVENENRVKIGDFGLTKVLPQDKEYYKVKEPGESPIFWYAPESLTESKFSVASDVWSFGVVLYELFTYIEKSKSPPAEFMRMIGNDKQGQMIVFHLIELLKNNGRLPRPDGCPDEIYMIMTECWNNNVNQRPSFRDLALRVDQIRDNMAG
Sequence of Tyk2 (P29597 whole entry): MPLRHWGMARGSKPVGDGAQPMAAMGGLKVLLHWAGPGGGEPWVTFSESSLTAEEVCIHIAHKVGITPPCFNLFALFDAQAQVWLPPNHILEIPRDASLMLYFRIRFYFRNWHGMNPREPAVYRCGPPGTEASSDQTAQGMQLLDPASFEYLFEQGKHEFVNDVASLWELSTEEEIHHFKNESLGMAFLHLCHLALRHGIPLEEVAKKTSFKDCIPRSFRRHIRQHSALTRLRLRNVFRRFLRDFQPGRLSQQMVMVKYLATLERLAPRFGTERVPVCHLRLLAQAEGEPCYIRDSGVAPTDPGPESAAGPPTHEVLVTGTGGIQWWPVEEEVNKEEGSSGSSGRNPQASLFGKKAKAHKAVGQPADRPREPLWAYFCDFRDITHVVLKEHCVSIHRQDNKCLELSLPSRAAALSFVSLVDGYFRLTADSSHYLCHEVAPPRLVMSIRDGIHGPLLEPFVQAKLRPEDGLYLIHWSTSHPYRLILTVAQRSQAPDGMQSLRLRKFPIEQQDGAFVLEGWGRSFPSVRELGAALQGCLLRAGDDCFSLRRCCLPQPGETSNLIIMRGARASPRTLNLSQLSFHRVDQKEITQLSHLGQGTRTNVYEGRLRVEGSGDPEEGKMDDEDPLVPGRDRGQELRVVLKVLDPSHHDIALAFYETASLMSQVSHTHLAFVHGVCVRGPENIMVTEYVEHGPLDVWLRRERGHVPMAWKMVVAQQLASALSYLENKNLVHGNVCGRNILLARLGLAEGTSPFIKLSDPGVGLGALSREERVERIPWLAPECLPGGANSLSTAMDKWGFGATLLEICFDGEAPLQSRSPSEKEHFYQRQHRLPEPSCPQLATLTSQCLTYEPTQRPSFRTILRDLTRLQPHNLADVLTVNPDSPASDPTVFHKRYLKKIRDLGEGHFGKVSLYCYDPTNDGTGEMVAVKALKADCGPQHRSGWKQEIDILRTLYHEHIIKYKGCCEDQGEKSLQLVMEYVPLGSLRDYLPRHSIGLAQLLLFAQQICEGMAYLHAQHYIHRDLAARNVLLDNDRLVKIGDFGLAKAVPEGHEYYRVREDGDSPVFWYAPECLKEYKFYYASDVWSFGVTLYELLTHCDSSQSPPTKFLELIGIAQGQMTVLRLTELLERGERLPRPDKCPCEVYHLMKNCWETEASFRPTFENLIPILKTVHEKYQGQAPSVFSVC
Sequence of JAK1 (P23458 whole entry): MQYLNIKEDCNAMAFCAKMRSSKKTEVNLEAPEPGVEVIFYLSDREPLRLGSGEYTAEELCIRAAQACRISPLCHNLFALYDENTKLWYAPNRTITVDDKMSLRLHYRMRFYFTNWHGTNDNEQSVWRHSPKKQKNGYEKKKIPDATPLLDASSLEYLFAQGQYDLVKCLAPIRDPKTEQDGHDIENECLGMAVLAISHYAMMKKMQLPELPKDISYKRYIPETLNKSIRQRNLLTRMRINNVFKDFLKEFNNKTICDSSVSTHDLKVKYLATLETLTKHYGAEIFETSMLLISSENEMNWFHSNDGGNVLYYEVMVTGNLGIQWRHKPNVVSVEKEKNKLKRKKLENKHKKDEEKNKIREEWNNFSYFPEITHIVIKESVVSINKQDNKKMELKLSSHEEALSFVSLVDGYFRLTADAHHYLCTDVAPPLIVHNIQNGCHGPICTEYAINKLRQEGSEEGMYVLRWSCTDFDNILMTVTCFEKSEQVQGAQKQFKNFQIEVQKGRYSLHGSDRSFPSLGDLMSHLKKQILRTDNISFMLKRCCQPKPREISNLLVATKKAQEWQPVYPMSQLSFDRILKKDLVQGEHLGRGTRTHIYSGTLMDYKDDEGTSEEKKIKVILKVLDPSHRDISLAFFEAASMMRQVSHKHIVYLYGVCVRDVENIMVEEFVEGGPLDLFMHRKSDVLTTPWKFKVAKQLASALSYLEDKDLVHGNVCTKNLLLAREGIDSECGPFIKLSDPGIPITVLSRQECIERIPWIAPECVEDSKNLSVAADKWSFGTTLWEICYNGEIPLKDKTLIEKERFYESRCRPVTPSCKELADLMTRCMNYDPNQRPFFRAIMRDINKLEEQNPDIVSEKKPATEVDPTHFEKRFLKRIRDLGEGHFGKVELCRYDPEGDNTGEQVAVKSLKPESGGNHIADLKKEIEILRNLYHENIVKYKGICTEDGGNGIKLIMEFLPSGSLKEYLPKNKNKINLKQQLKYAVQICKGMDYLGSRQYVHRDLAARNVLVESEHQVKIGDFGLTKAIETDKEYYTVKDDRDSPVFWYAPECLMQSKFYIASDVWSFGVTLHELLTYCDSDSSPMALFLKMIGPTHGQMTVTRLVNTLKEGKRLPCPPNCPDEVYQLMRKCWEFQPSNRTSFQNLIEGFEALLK
Sequence of JAK3 (P52333 whole entry): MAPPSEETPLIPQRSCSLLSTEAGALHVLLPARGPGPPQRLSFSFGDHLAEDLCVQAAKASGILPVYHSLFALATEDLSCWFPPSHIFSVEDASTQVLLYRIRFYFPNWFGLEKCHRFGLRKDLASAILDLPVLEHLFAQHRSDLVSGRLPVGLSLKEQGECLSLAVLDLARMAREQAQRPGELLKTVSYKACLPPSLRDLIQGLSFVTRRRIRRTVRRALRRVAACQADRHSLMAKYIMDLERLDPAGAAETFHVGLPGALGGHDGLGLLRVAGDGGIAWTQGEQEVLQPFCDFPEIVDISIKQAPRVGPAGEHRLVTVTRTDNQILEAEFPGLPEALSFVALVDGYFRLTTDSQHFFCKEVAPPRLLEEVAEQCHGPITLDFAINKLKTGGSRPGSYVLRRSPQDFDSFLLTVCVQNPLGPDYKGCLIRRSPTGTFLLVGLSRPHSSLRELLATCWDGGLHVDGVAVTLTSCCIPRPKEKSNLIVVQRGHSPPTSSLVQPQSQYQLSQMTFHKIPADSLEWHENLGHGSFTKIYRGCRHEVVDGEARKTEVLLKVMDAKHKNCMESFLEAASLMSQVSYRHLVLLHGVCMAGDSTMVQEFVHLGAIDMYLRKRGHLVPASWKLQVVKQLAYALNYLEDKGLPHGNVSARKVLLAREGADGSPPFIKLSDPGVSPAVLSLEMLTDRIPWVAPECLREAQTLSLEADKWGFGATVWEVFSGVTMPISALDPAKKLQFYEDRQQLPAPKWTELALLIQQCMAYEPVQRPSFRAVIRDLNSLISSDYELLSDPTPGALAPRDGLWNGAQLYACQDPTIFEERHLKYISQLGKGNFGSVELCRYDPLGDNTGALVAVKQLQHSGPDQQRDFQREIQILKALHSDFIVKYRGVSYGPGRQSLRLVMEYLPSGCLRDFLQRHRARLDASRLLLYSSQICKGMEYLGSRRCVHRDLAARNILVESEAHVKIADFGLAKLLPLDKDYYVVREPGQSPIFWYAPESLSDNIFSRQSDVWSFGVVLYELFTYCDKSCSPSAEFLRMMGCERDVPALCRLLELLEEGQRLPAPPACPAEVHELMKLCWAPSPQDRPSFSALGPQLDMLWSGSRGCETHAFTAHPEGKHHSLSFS

Regarding `COc1cc(Nc2cc(CO)[nH]n2)nc(N(C)[C@@H]2C[C@H]3CCC[C@@H](C2)N3Cc2cncc(C#N)c2)n1` [Example 7, 5-(((1R,3s,5S)-3-((4-((5-(hydroxymethyl)-1H-pyrazol-3-yl)amino)-6-methoxypyrimidin-2-yl)(methyl)amino)-9-azabicyclo[3.3.1]nonan-9-yl)methyl)nicotinonitrile], at JAK1, the “JAK 1 (pKi)” value is reported as “A (A represents a pKi value≥10 (Ki≤0.1 nM))”. In addition, the “JAK 2 (pKi)” value on JAK2 is “A (A represents a pKi value≥10 (Ki≤0.1 nM))”. Further, the Ki on JAK3 and on Tyk2 was 0.1 to 1 nM throughout. Further, in experiment [1], the IC50 is 31.6 to 200 nM.
As to `COc1cc(Nc2cc(CO)[nH]n2)nc(N(C)[C@@H]2C[C@H]3CCC[C@@H](C2)N3S(=O)(=O)c2ccccc2)n1` [Example 1-16, (3-((6-methoxy-2-(methyl((1R,3s,5S)-9-(phenylsulfonyl)-9-azabicyclo[3.3.1]nonan-3-yl)amino)pyrimidin-4-yl)amino)-1H-pyrazol-5-yl)methanol], the “JAK 1 (pKi)” value on JAK1 is “B (B represents a pKi value between 9 and 10 (Ki between 1 nM and 0.1 nM))”. Also, the “JAK 2 (pKi)” value on JAK2 is “B (B represents a pKi value between 9 and 10 (Ki between 1 nM and 0.1 nM))”. Moreover, the “JAK 3 (pKi)” value at JAK3 is “C (C represents a pKi value between 8 and 9 (Ki between 10 nM and 1 nM))”. Also, the “Tyk 2 (pKi)” value at Tyk2 was “B (B represents a pKi value between 9 and 10 (Ki between 1 nM and 0.1 nM))”. Also, the “HT-29 (pIC50)” value in experiment [1] is “B (B represents a pIC50 value between 6.7 and 7.5 (IC50 between 200 nM and 32 nM))”.
Turning to `COc1cc(Nc2cc(CO)[nH]n2)nc(N(C)[C@@H]2C[C@H]3CCC[C@@H](C2)N3S(=O)(=O)N2CCCC2)n1` [Example 1-13, (3-((6-methoxy-2-(methyl((1R,3s,5S)-9-(pyrrolidin-1-ylsulfonyl)-9-azabicyclo[3.3.1]nonan-3-yl)amino)pyrimidin-4-yl)amino)-1H-pyrazol-5-yl)methanol], the “JAK 1 (pKi)” value on JAK1 is “A (A represents a pKi value≥10 (Ki≤0.1 nM))”. The “JAK 2 (pKi)” value at JAK2 is “A (A represents a pKi value≥10 (Ki≤0.1 nM))”. For the same compound, at JAK3, the “JAK 3 (pKi)” value was “B (B represents a pKi value between 9 and 10 (Ki between 1 nM and 0.1 nM))”. Further, at Tyk2, the “Tyk 2 (pKi)” value was “B (B represents a pKi value between 9 and 10 (Ki between 1 nM and 0.1 nM))”. In addition, the “HT-29 (pIC50)” value in experiment [1] is listed as “A (A represents a pIC50 value≥7.5 (IC50≤32 nM))”.
On to `COc1cc(Nc2cc(CO)[nH]n2)nc(N(C)[C@@H]2C[C@H]3CCC[C@@H](C2)N3CCC#N)n1` [Example 2-5, 3-((1R,3s,5S)-3-((4-((5-(hydroxymethyl)-1H-pyrazol-3-yl)amino)-6-methoxypyrimidin-2-yl)(methyl)amino)-9-azabicyclo[3.3.1]nonan-9-yl)propanenitrile], for which, at JAK1, the “JAK 1 (pKi)” value was “B (B represents a pKi value between 9 and 10 (Ki between 1 nM and 0.1 nM))”. Moreover, at JAK2, the “JAK 2 (pKi)” value was “B (B represents a pKi value between 9 and 10 (Ki between 1 nM and 0.1 nM))”. The “JAK 3 (pKi)” value on JAK3 is “D (D represents a pKi value between 7.5 and 8 (Ki between 31.6 nM and 10 nM))”. Besides, the “Tyk 2 (pKi)” value on Tyk2 is “C (C represents a pKi value between 8 and 9 (Ki between 10 nM and 1 nM))”.
With `COc1cc(Nc2cc(CO)[nH]n2)nc(N(C)[C@@H]2C[C@H]3CCC[C@@H](C2)N3C(=O)OCC(C)C)n1` [Example 8, Isobutyl (1R,3s,5S)-3-((4-((5-(hydroxymethyl)-1H-pyrazol-3-yl)amino)-6-methoxypyrimidin-2-yl)(methyl)amino)-9-azabicyclo[3.3.1]nonane-9-carboxylate], the Ki on JAK1 (read-out: JAK 1 (pKi) (converted)) is 0.1 to 1 nM; at JAK2 it was 0.1 to 1 nM; at JAK3, 1 to 10 nM; at Tyk2 it was 0.1 to 1 nM. For the same compound, in experiment [1], the IC50 was 31.6 to 200 nM.
In the case of `COc1cc(Nc2cc(CO)[nH]n2)nc(N(C)[C@@H]2C[C@H]3CCC[C@@H](C2)N3S(=O)(=O)C2CC2)n1` [Example 1-14, (3-((2-(((1R,3s,5S)-9-(cyclopropylsulfonyl)-9-azabicyclo[3.3.1]nonan-3-yl)(methyl)amino)-6-methoxypyrimidin-4-yl)amino)-1H-pyrazol-5-yl)methanol], the “JAK 1 (pKi)” value at JAK1 was “B (B represents a pKi value between 9 and 10 (Ki between 1 nM and 0.1 nM))”. For the same compound, the “JAK 2 (pKi)” value on JAK2 was “A (A represents a pKi value≥10 (Ki≤0.1 nM))”. Further, the “JAK 3 (pKi)” value on JAK3 was “C (C represents a pKi value between 8 and 9 (Ki between 10 nM and 1 nM))”. For the same compound, the “Tyk 2 (pKi)” value on Tyk2 is “B (B represents a pKi value between 9 and 10 (Ki between 1 nM and 0.1 nM))”. For the same compound, in experiment [1], the “HT-29 (pIC50)” value is on record as “A (A represents a pIC50 value≥7.5 (IC50≤32 nM))”.
Consider `COc1cc(Nc2cc(CO)[nH]n2)nc(N(C)[C@@H]2C[C@H]3CCC[C@@H](C2)N3S(=O)(=O)N2CCC2)n1` [Example 1-17, (3-((2-(((1R,3s,5S)-9-(azetidin-1-ylsulfonyl)-9-azabicyclo[3.3.1]nonan-3-yl)(methyl)amino)-6-methoxypyrimidin-4-yl)amino)-1H-pyrazol-5-yl)methanol], for which the “JAK 1 (pKi)” value at JAK1 was “B (B represents a pKi value between 9 and 10 (Ki between 1 nM and 0.1 nM))”. Moreover, the “JAK 2 (pKi)” value on JAK2 is given as “A (A represents a pKi value≥10 (Ki≤0.1 nM))”. Also, the “JAK 3 (pKi)” value on JAK3 is “C (C represents a pKi value between 8 and 9 (Ki between 10 nM and 1 nM))”. The “Tyk 2 (pKi)” value at Tyk2 was “B (B represents a pKi value between 9 and 10 (Ki between 1 nM and 0.1 nM))”. In experiment [1], the “HT-29 (pIC50)” value was “A (A represents a pIC50 value≥7.5 (IC50≤32 nM))”.
On to `COc1cc(Nc2cc(CO)[nH]n2)nc(N(C)[C@@H]2C[C@H]3CCC[C@@H](C2)N3S(=O)(=O)c2cccnc2)n1` [Example 1-15, (3-((6-methoxy-2-(methyl((1R,3s,5S)-9-(pyridin-3-ylsulfonyl)-9-azabicyclo[3.3.1]nonan-3-yl)amino)pyrimidin-4-yl)amino)-1H-pyrazol-5-yl)methanol], for which the “JAK 1 (pKi)” value at JAK1 was “B (B represents a pKi value between 9 and 10 (Ki between 1 nM and 0.1 nM))”. Further, at JAK2, the “JAK 2 (pKi)” value is given as “A (A represents a pKi value≥10 (Ki≤0.1 nM))”. The “JAK 3 (pKi)” value at JAK3 is “C (C represents a pKi value between 8 and 9 (Ki between 10 nM and 1 nM))”. Also, the “Tyk 2 (pKi)” value on Tyk2 is “B (B represents a pKi value between 9 and 10 (Ki between 1 nM and 0.1 nM))”. For the same compound, the “HT-29 (pIC50)” value in experiment [1] is “B (B represents a pIC50 value between 6.7 and 7.5 (IC50 between 200 nM and 32 nM))”.
Regarding `COc1cc(Nc2cc(CO)[nH]n2)nc(N(C)[C@@H]2C[C@H]3CC[C@@H](C2)N3CCC#N)n1` [Example 5, 3-((1R,3s,5S)-3-((4-((5-(hydroxymethyl)-1H-pyrazol-3-yl)amino)-6-methoxypyrimidin-2-yl)(methyl)amino)-8-azabicyclo[3.2.1]octan-8-yl)-propanenitrile], the Ki at JAK1 was 0.1 to 1 nM; on JAK2, 0.1 to 1 nM; on JAK3, 10 to 31.6 nM; on Tyk2, 1 to 10 nM. Moreover, the IC50 in experiment [1] was 200 to 1000 nM.
In the case of `COc1cc(Nc2cc(CO)[nH]n2)nc(N(C)[C@@H]2C[C@H]3CCC[C@@H](C2)N3S(=O)(=O)CCC#N)n1` [Example 1-12, 3-(((1R,3s,5S)-3-((4-((5-(hydroxymethyl)-1H-pyrazol-3-yl)amino)-6-methoxypyrimidin-2-yl)(methyl)amino)-9-azabicyclo[3.3.1]nonan-9-yl)-sulfonyl)propanenitrile], at JAK1, the “JAK 1 (pKi)” value is “B (B represents a pKi value between 9 and 10 (Ki between 1 nM and 0.1 nM))”. Moreover, on JAK2, the “JAK 2 (pKi)” value is “B (B represents a pKi value between 9 and 10 (Ki between 1 nM and 0.1 nM))”. The “JAK 3 (pKi)” value at JAK3 is “C (C represents a pKi value between 8 and 9 (Ki between 10 nM and 1 nM))”. For the same compound, on Tyk2, the “Tyk 2 (pKi)” value is “B (B represents a pKi value between 9 and 10 (Ki between 1 nM and 0.1 nM))”.

The record behind these values is patent US10028960B2, “Pyrimidine compounds as JAK kinase inhibitors” (THERAVANCE BIOPHARMA R&D IP, LLC, priority 2016, dated 2018).
